In patent US10954214B2 (Janssen Pharmaceutica NV, priority 2016, dated 2021):

Tests used:
[1] = biological target: full-length MALT1 protein (Strep-MALT1(1-824)-His) (Homo sapiens (Human), UniProt Q9UDY8); experiment: MALT1 Biochemical Protease Assay (Ac-LRSR-AMC substrate); conditions: 10 nM FL MALT1, 200 μM Ac-LRSR-AMC, 4 h at RT; read-out: MALT1_Biochemical activity (Ac-LRSR-amc) IC50
Method in brief: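 Full-length MALT1 pre-incubated with compounds (30 μM to 0.5 nM, 11 threefold steps) for 50 min at RT. After Ac-LRSR-AMC was added, the reaction ran 4 h at RT and AMC fluorescence was read. IC50 and Hill slope from curve fitting against no-enzyme and no-compound controls.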

[2] = tested on: IL6 secretion by TMD8 ABC-DLBCL cells; experiment: Human IL6 Mesoscale assay (TMD-8); type: cell-based; conditions: Homo sapiens, TMD8; TMD-8 cells, 24 h
Method in brief: (§1)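 After 24 h at 37 °C with test compounds (15 μM down to 58.6 nM, 9 twofold steps, 0.3% DMSO), IL6 and IL10 secreted by 100,000 OCI-LY3 or TMD8 cells per well were measured in supernatants with a Mesoscale immunoassay. Data were scaled between DMSO wells (high) and RN486 treatment (low).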

[3] = tested on: IL10 secretion by TMD8 ABC-DLBCL cells; experiment: Human IL10 Mesoscale assay (TMD-8); type: cell-based; conditions: Homo sapiens, TMD8; TMD-8 cells, 24 h
Method in brief: as §1

[4] = tested on: IL6 secretion by OCI-LY3 ABC-DLBCL cells; experiment: Human IL6 Mesoscale assay (OCI-LY3); type: cell-based; conditions: Homo sapiens, 24 h
Method in brief: as §1

[5] = tested on: IL10 secretion by OCI-LY3 ABC-DLBCL cells; experiment: Human IL10 Mesoscale assay (OCI-LY3); type: cell-based; conditions: Homo sapiens, 24 h
Method in brief: as §1

full-length MALT1 protein (Strep-MALT1(1-824)-His), sequence (Q9UDY8 whole entry): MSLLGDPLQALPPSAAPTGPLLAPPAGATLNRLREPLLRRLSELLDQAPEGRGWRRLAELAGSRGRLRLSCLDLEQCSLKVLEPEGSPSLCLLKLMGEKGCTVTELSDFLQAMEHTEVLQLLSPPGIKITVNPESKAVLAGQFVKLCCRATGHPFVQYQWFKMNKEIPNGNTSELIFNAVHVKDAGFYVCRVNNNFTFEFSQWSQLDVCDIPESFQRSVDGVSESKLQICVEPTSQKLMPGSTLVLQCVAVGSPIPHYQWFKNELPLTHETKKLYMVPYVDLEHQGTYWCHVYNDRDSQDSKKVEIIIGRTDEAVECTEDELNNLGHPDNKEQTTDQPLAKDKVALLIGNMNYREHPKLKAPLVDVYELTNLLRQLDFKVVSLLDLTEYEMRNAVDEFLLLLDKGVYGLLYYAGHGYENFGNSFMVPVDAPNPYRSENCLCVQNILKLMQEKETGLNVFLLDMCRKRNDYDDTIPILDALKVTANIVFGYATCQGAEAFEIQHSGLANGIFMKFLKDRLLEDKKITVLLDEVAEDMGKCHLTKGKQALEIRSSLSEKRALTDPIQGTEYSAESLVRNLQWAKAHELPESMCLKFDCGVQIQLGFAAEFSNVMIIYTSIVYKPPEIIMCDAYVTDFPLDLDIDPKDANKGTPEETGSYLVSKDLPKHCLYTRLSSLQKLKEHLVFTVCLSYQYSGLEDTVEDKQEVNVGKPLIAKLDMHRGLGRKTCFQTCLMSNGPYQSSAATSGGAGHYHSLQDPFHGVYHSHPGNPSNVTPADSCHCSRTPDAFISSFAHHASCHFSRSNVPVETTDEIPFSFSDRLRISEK

IC50 [1] [nM]	IC50 [2] [nM]	IC50 [3] [nM]	IC50 [4] [nM]	IC50 [5] [nM]	Compound
26	170	200	26	17	CNC(=O)c1ncc(-n2ncc(C(=O)Nc3cnc(-n4nccn4)c(Cl)c3)c2C(F)(F)F)c2ccsc12 [Cpd 392, 4-(4-((5-chloro-6-(2H-1,2,3-triazol-2-yl)pyridin-3-yl)carbamoyl)-5-(trifluoromethyl)-1H-pyrazol-1-yl)-N-methylthieno[2,3-c]pyridine-7-carboxamide]
724	1380	427	380	309	N#Cc1cc(NC(=O)c2cnn(-c3cncc4ccccc34)c2C(F)(F)F)cnc1C(=O)NCCCCN [Cpd 236, N-(4-aminobutyl)-3-cyano-5-(1-(isoquinolin-4-yl)-5-(trifluoromethyl)-1H-pyrazole-4-carboxamido)picolinamide]
78	107	63	39	27	N#Cc1cc(NC(=O)c2cnn(-c3cnc4ccccn34)c2C(F)(F)F)cnc1-n1nccn1 [Cpd 189, N-(5-cyano-6-(2H-1,2,3-triazol-2-yl)pyridin-3-yl)-1-(imidazo[1,2-a]pyridin-3-yl)-5-(trifluoromethyl)-1H-pyrazole-4-carboxamide]
676	32	50	44	35	Cc1cc(NC(=O)c2cnn(-c3cccc4ncccc34)c2C(F)(F)F)ccc1-n1cc(CN)cn1 [Cpd 238, N-(4-(4-(aminomethyl)-1H-pyrazol-1-yl)-3-methylphenyl)-1-(quinolin-5-yl)-5-(trifluoromethyl)-1H-pyrazole-4-carboxamide]
417	363	339	120	129	COc1nccc2c(-n3ncc(C(=O)Nc4cnc(-n5nccn5)c(Cl)c4)c3C(F)(F)F)cccc12 [Cpd 243, N-(5-chloro-6-(2H-1,2,3-triazol-2-yl)pyridin-3-yl)-1-(1-methoxyisoquinolin-5-yl)-5-(trifluoromethyl)-1H-pyrazole-4-carboxamide]
132	170	95	89	87	O=C(Nc1cnc(-n2nccn2)c(Cl)c1)c1cnn(-c2cccc3nc(F)ccc23)c1C(F)(F)F [Cpd 277, N-(5-chloro-6-(2H-1,2,3-triazol-2-yl)pyridin-3-yl)-1-(2-fluoroquinolin-5-yl)-5-(trifluoromethyl)-1H-pyrazole-4-carboxamide]
58	107	63	39	27	C[C@@H](O)c1nccc2c(-n3ncc(C(=O)Nc4cnc(-n5nccn5)c(Cl)c4)c3C(F)(F)F)cccc12 (single isomer, unassigned) [Cpd 444, (*R)—N-(5-chloro-6-(2H-1,2,3-triazol-2-yl)pyridin-3-yl)-1-(1-(1-hydroxyethyl)isoquinolin-5-yl)-5-(trifluoromethyl)-1H-pyrazole-4-carboxamide]
214	562	708	148	135	CN(C)c1ncc(-n2ncc(C(=O)Nc3cnc(-n4nccn4)c(Cl)c3)c2C(F)(F)F)c2ccccc12 [Cpd 322, N-(5-chloro-6-(2H-1,2,3-triazol-2-yl)pyridin-3-yl)-1-(1-(dimethylamino)isoquinolin-4-yl)-5-(trifluoromethyl)-1H-pyrazole-4-carboxamide]
562	49	69	51	37	Cn1ncc2c(-n3ncc(C(=O)Nc4cnc(-n5nccn5)c(C#N)c4)c3C(F)(F)F)ccnc21 [Cpd 241, N-(5-cyano-6-(2H-1,2,3-triazol-2-yl)pyridin-3-yl)-1-(1-methyl-1H-pyrazolo[3,4-b]pyridin-4-yl)-5-(trifluoromethyl)-1H-pyrazole-4-carboxamide]
398	741	245	174	155	NC(=O)c1cnn(-c2ccc(NC(=O)c3cnn(-c4cccc5ncccc45)c3C(F)(F)F)cc2Cl)n1 [Cpd 244, 2-(2-chloro-4-(1-(quinolin-5-yl)-5-(trifluoromethyl)-1H-pyrazole-4-carboxamido)phenyl)-2H-1,2,3-triazole-4-carboxamide]
21	110	100	34	40	O=C(Nc1cnc(-n2nccn2)c(Cl)c1)c1cnn(-c2cccc3c[n+]([O-])ccc23)c1C(F)(F)F [Cpd 407, 5-(4-((5-chloro-6-(2H-1,2,3-triazol-2-yl)pyridin-3-yl)carbamoyl)-5-(trifluoromethyl)-1H-pyrazol-1-yl)isoquinoline 2-oxide]
155	158	229	95	63	Cn1ccc(-c2ncc(NC(=O)c3cnn(-c4ccc(F)c5ncccc45)c3C(F)(F)F)cc2C#N)n1 [Cpd 268, N-(5-cyano-6-(1-methyl-1H-pyrazol-3-yl)pyridin-3-yl)-1-(8-fluoroquinolin-5-yl)-5-(trifluoromethyl)-1H-pyrazole-4-carboxamide]
5890	120	123	18	14	O=C(Nc1cnc(-n2nccn2)c(Cl)c1)c1cnn(-c2cccc3c(C4CCN4)nccc23)c1C(F)(F)F (stereo not drawn) [Cpd 384, 1-(1-(azetidin-2-yl)isoquinolin-5-yl)-N-(5-chloro-6-(2H-1,2,3-triazol-2-yl)pyridin-3-yl)-5-(trifluoromethyl)-1H-pyrazole-4-carboxamide]
204	> 3020	> 3020	> 3020	> 3020	Cn1ncc2cccc(-n3ncc(C(=O)Nc4cnc(-n5nccn5)c(C#N)c4)c3C(F)(F)F)c21 [Cpd 260, N-(5-cyano-6-(2H-1,2,3-triazol-2-yl)pyridin-3-yl)-1-(1-methyl-1H-indazol-7-yl)-5-(trifluoromethyl)-1H-pyrazole-4-carboxamide]
112	141	162	54	81	O=C(Nc1cnc(-n2nccn2)c(Cl)c1)c1cnn(-c2cccc3c2ccc[n+]3[O-])c1C(F)(F)F [Cpd 408, 5-(4-((5-chloro-6-(2H-1,2,3-triazol-2-yl)pyridin-3-yl)carbamoyl)-5-(trifluoromethyl)-1H-pyrazol-1-yl)quinoline 1-oxide]
69	13	25	18	18	CC(O)c1ncc(-n2ncc(C(=O)Nc3cnc(-n4nccn4)c(Cl)c3)c2C(F)(F)F)c2ccccc12 (stereo not drawn) [Cpd 371, N-(5-chloro-6-(2H-1,2,3-triazol-2-yl)pyridin-3-yl)-1-(1-(1-hydroxyethyl)isoquinolin-4-yl)-5-(trifluoromethyl)-1H-pyrazole-4-carboxamide]
282	234	174	251	275	Cc1nc(-n2cccn2)c(Cl)cc1NC(=O)c1cnn(-c2cccc3nnsc23)c1C(F)(F)F [Cpd 303, 1-(benzo[d][1,2,3]thiadiazol-7-yl)-N-(5-chloro-2-methyl-6-(1H-pyrazol-1-yl)pyridin-3-yl)-5-(trifluoromethyl)-1H-pyrazole-4-carboxamide]
107	54	46	13	10	O=C1COC(c2ncc(-n3ncc(C(=O)Nc4cnc(-n5nccn5)c(Cl)c4)c3C(F)(F)F)c3ccccc23)C1 (stereo not drawn) [Cpd 370, N-(5-chloro-6-(2H-1,2,3-triazol-2-yl)pyridin-3-yl)-1-(1-(4-oxotetrahydrofuran-2-yl)isoquinolin-4-yl)-5-(trifluoromethyl)-1H-pyrazole-4-carboxamide]
457			52	56	Cc1ncc(NC(=O)c2cnn(-c3cnc(N)c4ccccc34)c2C(F)(F)F)cc1C(F)(F)F [Cpd 377, 1-(1-aminoisoquinolin-4-yl)-N-(6-methyl-5-(trifluoromethyl)pyridin-3-yl)-5-(trifluoromethyl)-1H-pyrazole-4-carboxamide]
170			186	93	C#Cc1cc(NC(=O)c2cnn(-c3cccc4c(=O)[nH]ccc34)c2C(F)(F)F)c(C)nc1-n1nccn1 [Cpd 190, N-(5-ethynyl-2-methyl-6-(2H-1,2,3-triazol-2-yl)pyridin-3-yl)-1-(1-oxo-1,2-dihydroisoquinolin-5-yl)-5-(trifluoromethyl)-1H-pyrazole-4-carboxamide]
107			20	18	O=C(Nc1ccnc(C(F)(F)F)c1)c1cnn(-c2cccn3nccc23)c1C(F)(F)F [Cpd 319, 1-(pyrazolo[1,5-a]pyridin-4-yl)-5-(trifluoromethyl)-N-(2-(trifluoromethyl)pyridin-4-yl)-1H-pyrazole-4-carboxamide]
